Source: patent publication US10829520B2, “Beta-hairpin peptidomimetics” (POLYPHOR AG, priority 2015, dated 2020)
Where a SMILES comes first, the peptide text is derived from it. Bridges are numbered along the chain shown (N, C = ends). Roman numbers before positions name the chains, in order. [ ]: non-standard residue; d: D form. The star is where a group is joined. X2 = CN(C)C(=N[C@@H](Cc1c[nH]c2ccccc12)C(=O)*)N(C)C; dHyp = O=C(O)[C@H]1C[C@H](O)CN1; Pen = CC(C)(S)[C@H](N)C(=O)O; Tle = CC(C)(C)[C@H](N)C(=O)O; dDab = NCC[C@@H](N)C(=O)O; Nle = CCCC[C@H](N)C(=O)O; Orn = NCCC[C@H](N)C(=O)O; Dab = NCC[C@H](N)C(=O)O

Columns and labels:
Type in all cases: cell-based
[1] = test system: Acinetobacter baumannii 872842; conditions: 872842
[2] = test system: Acinetobacter baumannii DSM 30008; conditions: DSM 30008
Outline: (§1)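 MIC in μg/mL; CLSI microdilution; cation-adjusted Mueller-Hinton II with Polysorbate 80 (0.002%); 10^6 CFU/mL; 35° C, 18-20 h.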

[3] = test system: Escherichia coli 926415; conditions: 926415
[4] = test system: Escherichia coli ATCC 25922; conditions: ATCC 25922
Outline: as §1

[5] = test system: Klebsiella pneumoniae 968733; conditions: 968733
[6] = test system: Klebsiella pneumoniae SSI #3010; conditions: SSI #3010
Outline: as §1

[7] = test system: Pseudomonas aeruginosa ATCC 27853; conditions: ATCC 27853
Outline: as §1

[8] = test system: human red blood cells (hRBC); assay: Hemolysis of human red blood cells; conditions: red cells of human, 1 h
Outline: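 Percent hemolysis = OD540 of peptide-treated supernatant relative to the 2.5% Triton X-100 (100%) control, PBS containing 0.001% acetic acid defining 0%. Peptides tested at 100 μg/mL against 20% (v/v) washed human RBC, 1 h, 37 °C, 300 rpm.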

| Compound | Acinetobacter baumannii 872842 MIC [1] [µg/mL] | Acinetobacter baumannii DSM 30008 MIC [2] [µg/mL] | Escherichia coli 926415 MIC [3] [µg/mL] | Escherichia coli ATCC 25922 MIC [4] [µg/mL] | Klebsiella pneumoniae 968733 MIC [5] [µg/mL] | Klebsiella pneumoniae SSI #3010 MIC [6] [µg/mL] | Pseudomonas aeruginosa ATCC 27853 MIC [7] [µg/mL] | Hemolysis at 100 μg/mL ([8]; 100 μg/mL) [%] | Hemolysis at 100 μg/mL [8]; 100 [%] |
| --- | --- | --- | --- | --- | --- | --- | --- | --- | --- |
| CC(C)C[C@@H]1NC(=O)[C@@H](CC(C)C)NC(=O)[C@H](CCN)NC(=O)[C@@H](NC(=O)[C@H](CCN)NC(=O)[C@@H](NC(=O)[C@H](CCN)NC(=O)CNC(=O)[C@@H]2CSSC[C@H](NC(=O)[C@@H](N)Cc3c[nH]c4ccccc34)C(=O)N[C@@H](C(C)C)C(=O)N[C@@H](C)C(=O)N[C@@H](CO)C(=O)N[C@H](CO)C(=O)N3CCC[C@H]3C(=O)N[C@@H](CC(C)C)C(=O)N[C@@H](CO)C(=O)N[C@@H](Cc3ccc(O)cc3)C(=O)N2)[C@@H](C)O)CCNC(=O)[C@H]([C@@H](C)O)NC(=O)[C@H](CCN)NC(=O)[C@H](CCN)NC1=O [Ex. 130] (H-WCVAS[dS]PLSYCG[Dab]T[Dab][Dab][Dab][dL]L[Dab][Dab]T; disulfide 2-11; lactam 16-C) | 0.0625 | 0.0625 | 0.25 | 0.0625 | 0.125 | 0.0625 | 0.25 | <1 |  |
| CCCC[C@@H]1NC(=O)[C@@H]2CCCN2C(=O)[C@H]2CCCN2C(=O)[C@H](CO)NC(=O)[C@H](C)NC(=O)[C@H](C(C)(C)C)NC(=O)[C@H](CCN)NC(=O)[C@H](Cc2c[nH]c3ccccc23)NC(=O)[C@H](CCC(=O)N[C@H](C(=O)N[C@@H](CCN)C(=O)N[C@H]2CCNC(=O)[C@H]([C@@H](C)O)NC(=O)[C@H](CCN)NC(=O)[C@H](CCN)NC(=O)[C@H](CC(C)C)NC(=O)[C@@H](Cc3ccccc3)NC(=O)[C@H](CCN)NC2=O)[C@@H](C)O)NC(=O)[C@@H](CCN)NC(=O)[C@H](CCCN)NC(=O)[C@H](CCN)NC(=O)[C@H](Cc2ccc(O)cc2)NC(=O)[C@H](CO)NC1=O [Ex. 75] (I: cyclo([Nle]SY[Dab][Orn][dDab]EW[Dab][Tle]AS[dP]P) / II: T[Dab][Dab][Dab][dF]L[Dab][Dab]T; amide I:7-II:N; lactam II:3-II:C) | 2 | 0.5 | 1 | 0.5 | 4 | 0.5 | 0.25 |  | <1 |
| CCCC[C@@H]1NC(=O)[C@@H]2CCCN2C(=O)[C@H]2CCCN2C(=O)[C@H](CO)NC(=O)[C@H]([C@@H](C)O)NC(=O)[C@H](C(C)(C)C)NC(=O)[C@@H](NC(=O)[C@H](Cc2c[nH]c3ccccc23)NC(C)=O)CSSC[C@@H](C(=O)N[C@@H](CCCN)C(=O)N[C@@H](CCN)C(=O)N[C@H]2CCNC(=O)[C@H]([C@@H](C)O)NC(=O)[C@H](CCN)NC(=O)[C@H](CCN)NC(=O)[C@H](CC(C)C)NC(=O)[C@@H](Cc3ccccc3)NC(=O)[C@H](CCN)NC2=O)NC(=O)[C@H](Cc2ccc(O)cc2)NC(=O)[C@H](CO)NC1=O [Ex. 47] (Ac-WC[Tle]TS[dP]P[Nle]SYC[Orn][Dab][Dab][Dab][dF]L[Dab][Dab]T; disulfide 2-11; lactam 14-C) | 0.5 | 0.25 | 0.5 | 0.25 | 1 | 0.5 | 0.5 | 1 |  |
| CC(C)C[C@@H]1NC(=O)[C@@H](CC(C)C)NC(=O)[C@H](CCN)NC(=O)[C@@H](NC(=O)[C@H](CCN)NC(=O)[C@@H](NC(=O)[C@H](CCN)NC(=O)CNC(=O)[C@@H]2CSSC[C@H](NC(=O)[C@H](Cc3c[nH]c4ccccc34)N=C(N(C)C)N(C)C)C(=O)N[C@@H](C(C)C)C(=O)N[C@@H](C)C(=O)N[C@@H](CO)C(=O)N3CCC[C@@H]3C(=O)N3CCC[C@H]3C(=O)N[C@@H](CC(C)C)C(=O)N[C@@H](CO)C(=O)N[C@@H](Cc3ccc(O)cc3)C(=O)N2)[C@@H](C)O)CCNC(=O)[C@H]([C@@H](C)O)NC(=O)[C@H](CCN)NC(=O)[C@H](CCN)NC1=O [Ex. 133] (X2-CVAS[dP]PLSYCG[Dab]T[Dab][Dab][Dab][dL]L[Dab][Dab]T; disulfide 1-10; lactam 15-C) | 4 | 1 | 4 | 0.25 | 8 | 1 | 1 | <1 |  |
| CC(C)C[C@@H]1NC(=O)[C@@H](CC(C)C)NC(=O)[C@H](CCN)NC(=O)[C@@H](NC(=O)[C@H](CCN)NC(=O)[C@@H](NC(=O)[C@H](CCN)NC(=O)CNC(=O)[C@H](CCN)NC(=O)[C@H](Cc2ccc(O)cc2)NC(=O)[C@H]2NC(=O)[C@H](CC(C)C)NC(=O)[C@@H]3CCCN3C(=O)[C@H]3CCCN3C(=O)[C@H](CO)NC(=O)[C@@H](NC(=O)[C@@H](NC(=O)[C@H](CCN)NC(=O)[C@@H](N)Cc3c[nH]c4ccccc34)C(C)C)CSSC2(C)C)[C@@H](C)O)CCNC(=O)[C@H]([C@@H](C)O)NC(=O)[C@H](CCN)NC(=O)[C@H](CCN)NC1=O [Ex. 162] (H-W[Dab]VCS[dP]PL[Pen]Y[Dab]G[Dab]T[Dab][Dab][Dab][dL]L[Dab][Dab]T; disulfide 4-9; lactam 16-C) | 0.125 | 0.5 | 0.25 | 0.0625 | 2 | 0.25 | 1 | <1 |  |
| CC(C)C[C@@H]1NC(=O)[C@@H](Cc2ccccc2)NC(=O)[C@H](CCN)NC(=O)[C@@H](NC(=O)[C@H](CCN)NC(=O)[C@@H](CCN)NC(=O)[C@@H](NC(=O)[C@H](CCCN)NC(=O)[C@@H]2CSSC[C@H](NC(=O)[C@@H](N)Cc3c[nH]c4ccccc34)C(=O)N[C@@H](C(C)C)C(=O)N[C@@H](C)C(=O)N[C@@H](CO)C(=O)N3CCC[C@@H]3C(=O)N3CCC[C@H]3C(=O)N[C@@H](C(C)C)C(=O)N[C@@H](CO)C(=O)N[C@@H](Cc3ccc(O)cc3)C(=O)N2)[C@@H](C)O)CCNC(=O)[C@H]([C@@H](C)O)NC(=O)[C@H](CCNC(=O)[C@@H](N)CCCNC(=N)N)NC(=O)[C@H](CCN)NC1=O [Ex. 177] (H-WCVAS[dP]PVSYC[Orn]T[dDab][Dab][Dab][Dab][dF]L[Dab][Dab](Arg)T; disulfide 2-11; lactam 16-C) | 2 | 1 | 2 | 1 | 2 | 1 | 0.5 | 1.4 |  |
| CCCC[C@@H]1NC(=O)[C@@H]2CCCN2C(=O)[C@H]2CCCN2C(=O)[C@H](CO)NC(=O)[C@H](CO)NC(=O)[C@H](C(C)(C)C)NC(=O)[C@H](CCN)NC(=O)[C@H](Cc2c[nH]c3ccccc23)NC(=O)[C@@H](N)CSSC[C@@H](C(=O)N[C@@H](CCN)C(=O)N[C@H](CCN)C(=O)N[C@H]2CCNC(=O)[C@H]([C@@H](C)O)NC(=O)[C@H](CCN)NC(=O)[C@H](CCN)NC(=O)[C@H](CC(C)C)NC(=O)[C@@H](Cc3ccccc3)NC(=O)[C@H](CCN)NC2=O)NC(=O)[C@H](CCCN)NC(=O)[C@H](CCN)NC(=O)[C@H](Cc2ccc(O)cc2)NC(=O)[C@H](CO)NC1=O [Ex. 205] (H-CW[Dab][Tle]SS[dP]P[Nle]SY[Dab][Orn]C[Dab][dDab][Dab][Dab][dF]L[Dab][Dab]T; disulfide 1-14; lactam 17-C) | 0.5 | 2 | 0.5 | 0.25 | 2 | 2 | 0.25 | <1 |  |
| CC(C)C[C@@H]1NC(=O)[C@@H](CC(C)C)NC(=O)[C@H](CCN)NC(=O)[C@@H](NC(=O)[C@@H](CCN)NC(=O)[C@@H]2CSSC(C)(C)[C@H](N)C(=O)N[C@@H](Cc3c[nH]c4ccccc34)C(=O)N[C@@H](CCN)C(=O)N[C@@H](C(C)C)C(=O)N[C@@H](CO)C(=O)N[C@@H](CO)C(=O)N3C[C@@H](O)C[C@@H]3C(=O)N3CCC[C@H]3C(=O)N[C@@H](CC(C)C)C(=O)N[C@@H](CO)C(=O)N[C@@H](Cc3ccc(O)cc3)C(=O)N[C@@H](CCN)C(=O)N[C@@H](CCCN)C(=O)N2)CCNC(=O)[C@H]([C@@H](C)O)NC(=O)[C@H](CCN)NC(=O)[C@H](CCN)NC1=O [Ex. 208] (H-[Pen]W[Dab]VSS[dHyp]PLSY[Dab][Orn]C[dDab][Dab][Dab][dL]L[Dab][Dab]T; disulfide 1-14; lactam 16-C) | 2 | 1 | 0.5 | 0.25 | 8 | 1 | 2 | <1 |  |
